# Results from US20150377888A1, “Methods for Predicting and Preventing Metastasis in Triple Negative Breast Cancers” (INSERM (INSTITUT NATIONAL DE LA SANTÉ ET DE LA RECHERCHE …, priority 2013, published 2015).
# Tests used:
# CD95 = biological target: T1, CD95 (Homo sapiens, UniProt P25445); assay: MISC immunoprecipitation; type: cell-based; conditions: MDA-MB-231 and MDA-MB-468 cells stimulated with cl-CD95L
# T1 construct: endogenous in cells; host or cells: MDA-MB-231 and MDA-MB-468 human TNBC breast cancer cells
# T1 sequence (P25445 26-335): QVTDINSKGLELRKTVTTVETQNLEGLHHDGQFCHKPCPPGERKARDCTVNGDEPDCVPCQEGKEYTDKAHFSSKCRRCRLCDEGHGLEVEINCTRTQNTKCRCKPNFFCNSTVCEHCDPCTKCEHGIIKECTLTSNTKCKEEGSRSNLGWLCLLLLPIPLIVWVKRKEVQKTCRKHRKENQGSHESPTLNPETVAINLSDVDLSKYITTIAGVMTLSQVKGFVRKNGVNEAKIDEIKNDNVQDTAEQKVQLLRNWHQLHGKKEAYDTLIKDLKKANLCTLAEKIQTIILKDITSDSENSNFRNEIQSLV
# T1 sequence (P48023 130-281 partner limits assumed): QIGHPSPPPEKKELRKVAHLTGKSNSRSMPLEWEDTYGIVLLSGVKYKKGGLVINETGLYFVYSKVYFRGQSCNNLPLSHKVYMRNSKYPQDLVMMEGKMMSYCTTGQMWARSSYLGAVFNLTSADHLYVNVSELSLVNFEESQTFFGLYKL
# Method: Breast cancer cells (20×10^6 cells per condition) were incubated with 100 ng/ml cl-CD95L for the indicated times. The cells were then lysed, 1 μg of Apo1-3 was added to the cell lysate and CD95 was immunoprecipitated by the addition of protein A-sepharose beads (Sigma-Aldrich). For the immunoprecipitation of EGF-R, 1 μg mouse anti-EGF-R (Santa Cruz Biotechnology, CA, USA) was added to the cell lysate and EGF-R was immunoprecipitated with protein A-sepharose beads (Sigma-Aldrich). After extensive washing, the immune complex was resolved by SDS-PAGE.
# PI3K = assay: Immunoblot of Akt phosphorylation at Ser473 (hallmark of PI3K activation) in cells exposed to cl-CD95L; type: cell-based, human; conditions: all tested TNBC cell lines
# Method: Cells were lysed for 30 min at 4° C. in lysis buffer [25 mM HEPES (pH 7.4), 1% v/v Triton X-100, 150 mM NaCl, and 2 mM EGTA supplemented with a mix of protease inhibitors (Sigma-Aldrich)]. Protein concentration was determined by the bicinchoninic acid method (PIERCE, Rockford, Ill., USA) according to the manufacturer's protocol. Proteins were separated by SDS-PAGE and transferred to a nitrocellulose membrane (GE Healthcare, Buckinghamshire, England). […] The proteins were visualized with the enhanced chemiluminescence substrate kit (ECL, GE Healthcare).
# [1] = test system: TNBC breast cancer cell lines (Hs578T, MDA-MB-231 and MDA-MB-468); assay: In vitro motility assay (Boyden chambers); type: cell-based, human
# Method: Boyden chambers (Millipore, Molsheim, France) containing 8 μm pore membranes were cultured in 24-well plates. After hydration of the membranes, 10^5 cells were added to the top chamber in low serum (1%)-containing medium. […] Cells were cultured for 24 h at 37° C. in a 5% CO2 humidified incubator. To quantify invasion, cells were fixed with methanol and stained with Giemsa. Stained cells were then removed from the top side of the membrane using a cotton-tipped swab and five representative pictures for each insert were taken of the invading cells from the reverse side. For each experiment, cells were lysed and absorbance at 560 nm was measured.
# EGFR = EGFR phosphorylation at Tyr845 / CD95-driven EGFR activation; type: cell-based, human; conditions: MDA-MB-468 cells exposed to cl-CD95L
# Method: Cells were lysed for 30 min at 4° C. in lysis buffer [25 mM HEPES (pH 7.4), 1% v/v Triton X-100, 150 mM NaCl, and 2 mM EGTA supplemented with a mix of protease inhibitors (Sigma-Aldrich)]. Protein concentration was determined by the bicinchoninic acid method (PIERCE, Rockford, Ill., USA) according to the manufacturer's protocol. Proteins were separated by SDS-PAGE and transferred to a nitrocellulose membrane (GE Healthcare, Buckinghamshire, England). The membrane was blocked for 15 min with TBST (50 mM Tris, 160 mM NaCl, 0.05% v/v Tween 20, pH 7.8) containing 5% w/v dried skimmed milk (TBSTM) and then incubated overnight with primary antibody at 4° C. in TBSTM. The membrane was intensively washed (TBST) and peroxidase-labeled anti-rabbit or anti-mouse (SouthernBiotech, Birmingham, Ala., US) was added for 45 min. The proteins were visualized with the enhanced chemiluminescence substrate kit (ECL, GE Healthcare).
# NADPHox = assay: Flow cytometry analysis of intracellular ROS (H2FDA); type: cell-based, human
# Method: Cells were pre-incubated for 30 min at 37° C. with 3 μM of H2FDA resuspended in PBS. The cells were then pre-incubated for an additional 30 min with or without ROS inhibitors before stimulation with 100 ng/ml cl-CD95L for the indicated times. Cells were then washed and analyzed by FACScalibur (BD Bioscience).
substance,measurement,setting,value
cl-CD95L: soluble ligand produced by metalloprotease cleavage of the transmembrane CD95L (FasL); produced in transfected 293 cells,MISC formation,CD95,induces MISC formation
same,phosphorylation of Akt at Ser473 induced by CD95L,PI3K,induced rapid phosphorylation of Akt
same,motility of TNBC cells stimulated with cl-CD95L,"[1]; Hs578T, MDA-MB-231 and MDA-MB-468, Boyden chambers",dramatic increase in motility
same,"migration of TNBC cells, titration of cl-CD95L",[1]; cl-CD95L at 100 pg/ml,induced migration of TNBC cells
same,phosphorylation of EGFR at Tyr845,EGFR,resulted in phosphorylation of EGFR at Tyr845
same,time of peak of EGFR Tyr845 phosphorylation,EGFR,2 min
same,time of stimulation after which EGFR Tyr845 phosphorylation disappeared,EGFR,10 min
same,intracellular ROS in breast cancer cells exposed to cl-CD95L,NADPHox,rapid increase in intracellular ROS
